Assay [1] has as its system Vascular Endothelial Growth Factor (VEGF) production by human melanoma cell line RPMI-7951. In words: VEGF ELISA, RPMI-7951. As to conditions: RPMI-7951; for VEGF ELISA: DMSO control 3713. (In general: In an ELISA, binding on a coated surface is turned into a signal by an enzyme label.)
For a further assay, the system named is CCRF-CEM. Kind of assay: cells. As to conditions: Homo sapiens, 48 h; for GI50: read-out: Median Growth Inhibitory Concentration (GI50).
The next assay has as its system SNB-19. Kind of assay: cells. As to conditions: Homo sapiens, SNB-19, 48 h; for GI50: read-out: Median Growth Inhibitory Concentration (GI50); for CC50: read-out: Median Lethal Concentration (LC50).
A further assay has as its system A549. Kind of assay: cells. As to conditions: Homo sapiens, A549, 48 h; for GI50: read-out: Median Growth Inhibitory Concentration (GI50); for CC50: read-out: Median Lethal Concentration (LC50).
For another assay, the system named is SR. Kind of assay: cells. As to conditions: Homo sapiens, 48 h; for GI50: read-out: Median Growth Inhibitory Concentration (GI50); for CC50: read-out: Median Lethal Concentration (LC50).
In a further assay the test system is KM12. Kind of assay: cells. As to conditions: Homo sapiens, KM12, 48 h; for GI50: read-out: Median Growth Inhibitory Concentration (GI50); for CC50: read-out: Median Lethal Concentration (LC50).
In another assay the test system is SF-268. In words: cells. As to conditions: Homo sapiens, SF-268, 48 h; for GI50: read-out: Median Growth Inhibitory Concentration (GI50); for CC50: read-out: Median Lethal Concentration (LC50).
For a further assay, the system named is HS 578T. In words: cells. As to conditions: Homo sapiens, 48 h; for GI50: read-out: Median Growth Inhibitory Concentration (GI50); for CC50: read-out: Median Lethal Concentration (LC50).
The next assay deals with LOX IMVI. Kind of assay: cells. As to conditions: Homo sapiens, 48 h; for GI50: read-out: Median Growth Inhibitory Concentration (GI50).
A further assay relates to UO-31. In words: cells. As to conditions: Homo sapiens, UO-31, 48 h; for GI50: read-out: Median Growth Inhibitory Concentration (GI50); for CC50: read-out: Median Lethal Concentration (LC50).
A further assay deals with SK-MEL-28. Kind of assay: cells. As to conditions: Homo sapiens, SK-MEL-28, 48 h; for GI50: read-out: Median Growth Inhibitory Concentration (GI50); for CC50: read-out: Median Lethal Concentration (LC50).
Another assay deals with COLO 205. In words: cells. As to conditions: Homo sapiens, COLO 205, 48 h; for GI50: read-out: Median Growth Inhibitory Concentration (GI50); for CC50: read-out: Median Lethal Concentration (LC50).
Another assay concerns MOLT-4. Kind of assay: cells. As to conditions: Homo sapiens, MOLT-4, 48 h; for GI50: read-out: Median Growth Inhibitory Concentration (GI50); for CC50: read-out: Median Lethal Concentration (LC50).
The test system of another assay is NCI-H522. In words: cells. As to conditions: Homo sapiens, NCI-H522, 48 h; for GI50: read-out: Median Growth Inhibitory Concentration (GI50); for CC50: read-out: Median Lethal Concentration (LC50).
In the next assay the test system is NCI-H23. In words: cells. As to conditions: Homo sapiens, NCI-H23, 48 h; for GI50: read-out: Median Growth Inhibitory Concentration (GI50); for CC50: read-out: Median Lethal Concentration (LC50).
The next assay concerns HOP-62. In words: cells. As to conditions: Homo sapiens, HOP-62, 48 h; for GI50: read-out: Median Growth Inhibitory Concentration (GI50).
In the next assay the test system is A498. Kind of assay: cells. As to conditions: Homo sapiens, A498, 48 h; for GI50: read-out: Median Growth Inhibitory Concentration (GI50); for CC50: read-out: Median Lethal Concentration (LC50).
A further assay deals with HCC-2998. In words: cells. As to conditions: Homo sapiens, HCC 2998, 48 h; for GI50: read-out: Median Growth Inhibitory Concentration (GI50); for CC50: read-out: Median Lethal Concentration (LC50).
A further assay relates to SK-OV-3. Kind of assay: cells. As to conditions: Homo sapiens, SK-OV-3, 48 h; for GI50: read-out: Median Growth Inhibitory Concentration (GI50); for CC50: read-out: Median Lethal Concentration (LC50).
The subject of a further assay is SK-MEL-5. In words: cells. As to conditions: Homo sapiens, SK-MEL-5, 48 h; for GI50: read-out: Median Growth Inhibitory Concentration (GI50).
For the next assay, the system named is NCI-H226. Kind of assay: cells. As to conditions: Homo sapiens, NCI-H226, 48 h; for GI50: read-out: Median Growth Inhibitory Concentration (GI50); for CC50: read-out: Median Lethal Concentration (LC50).
The test system of another assay is OVCAR-3. In words: cells. As to conditions: Homo sapiens, OVCAR-3, 48 h; for GI50: read-out: Median Growth Inhibitory Concentration (GI50); for CC50: read-out: Median Lethal Concentration (LC50).
The test system of a further assay is SF-295. Kind of assay: cells. As to conditions: Homo sapiens, SF-295, 48 h; for GI50: read-out: Median Growth Inhibitory Concentration (GI50); for CC50: read-out: Median Lethal Concentration (LC50).
Another assay deals with HT29. Kind of assay: cells. As to conditions: Homo sapiens, HT-29, 48 h; for GI50: read-out: Median Growth Inhibitory Concentration (GI50); for CC50: read-out: Median Lethal Concentration (LC50).
For another assay, the system named is HL-60 (TB). Kind of assay: cells. As to conditions: Homo sapiens, HL-60, 48 h; for GI50: read-out: Median Growth Inhibitory Concentration (GI50); for CC50: read-out: Median Lethal Concentration (LC50).
Another assay has as its system 786-0. Kind of assay: cells. As to conditions: Homo sapiens, 786-0, 48 h; for GI50: read-out: Median Growth Inhibitory Concentration (GI50); for CC50: read-out: Median Lethal Concentration (LC50).
In a further assay the test system is ACHN. In words: cells. As to conditions: Homo sapiens, 48 h; for GI50: read-out: Median Growth Inhibitory Concentration (GI50); for CC50: read-out: Median Lethal Concentration (LC50).
The test system of a further assay is MDA-MB-231. In words: cells. As to conditions: Homo sapiens, MDA-MB-231, 48 h; for GI50: read-out: Median Growth Inhibitory Concentration (GI50); for CC50: read-out: Median Lethal Concentration (LC50).
The test system of the next assay is OVCAR-4. Kind of assay: cells. As to conditions: Homo sapiens, OVCAR-4, 48 h; for GI50: read-out: Median Growth Inhibitory Concentration (GI50); for CC50: read-out: Median Lethal Concentration (LC50).
Where [2] appears, read: read-out: Median Lethal Concentration (LC50).
Where [3] appears, read: 5 μM, DMSO control 4197 (EF-25: 1045).

Marks after values point to notes of the source that are not given here.

As to “3,5-Bis(2-hydroxybenzylidene)-sulfone [EF11]”, the VEGF in assay [1] (20 μM, DMSO = 100) is listed as 51%.

Regarding `OC(CCc1ccc(F)cc1F)CCc1ccc(F)cc1F` [EF19, 1,5-Bis(2,4-difluorophenyl)-pentan-3-ol], the GI50 with CCRF-CEM was determined as 18.2 µM; with SNB-19, 16.1 µM; with A549 it was 18 µM; in the assay on SR it was 22.7 µM; with KM12 it was 17.6 µM; in the assay with SF-268, 21.5 µM. The GI50 with HS 578T amounted to 21.9 µM; in the assay with LOX IMVI, 20 µM; in the assay on UO-31 it was 18.2 µM; with SK-MEL-28, 17.1 µM; with COLO 205, 17.5 µM; in the assay with MOLT-4 it was 2.6 µM. Also, the GI50 is 18.2 µM with NCI-H522; 22.8 µM in the assay on NCI-H23; 18 µM in the assay on HOP-62; 16.3 µM with A498; 17.7 µM in the assay with HCC-2998; 18.5 µM in the assay with SK-OV-3. Besides, the GI50 with SK-MEL-5 came out at 17.1 µM; in the assay on NCI-H226, 19.9 µM; in the assay with OVCAR-3 it was 17.9 µM; with SF-295, 18.7 µM; with HT29 it was 17.9 µM; in the assay on HL-60 (TB) it was 18.1 µM. Further, the GI50 came out at 17 µM in the assay with 786-0, 17.8 µM with ACHN, 22.4 µM with MDA-MB-231 and 17.4 µM in the assay on OVCAR-4. In addition, the CC50 in the assay on CCRF-CEM (setting [2]) came to 72.3 µM; in the assay with SNB-19 it was 57.3 µM; with A549, 65.8 µM; with SR, 82.6 µM; in the assay on KM12 it was 56.1 µM; with SF-268, 85.3 µM. The CC50 is above 100 µM with HS 578T; 74.4 µM in the assay on LOX IMVI (setting [2]); 56.6 µM in the assay on UO-31; 55.6 µM in the assay on SK-MEL-28; 55.9 µM in the assay on COLO 205; 75.6 µM in the assay with MOLT-4. In addition, the CC50 in the assay with NCI-H522 is 75.4 µM; with NCI-H23 it was 96.8 µM; in the assay with HOP-62 (setting [2]), 58.7 µM; in the assay with A498, 54.7 µM; with HCC-2998, 56.1 µM; in the assay with SK-OV-3 it was 65.9 µM. Besides, the CC50 in the assay with SK-MEL-5 (setting [2]) turned out to be 55.5 µM; with NCI-H226, 75.7 µM; with OVCAR-3, 59.3 µM; in the assay with SF-295 it was 69.7 µM; in the assay with HT29 it was 62.6 µM; with HL-60 (TB), 66.8 µM. The CC50 in the assay on 786-0 was 55.4 µM; with ACHN, 56.3 µM; in the assay with MDA-MB-231 it was 66.3 µM; with OVCAR-4, 65.1 µM.

In the case of `O=C1C(=Cc2ccccc2O)COCC1=Cc1ccccc1O` [EF25, 3,5-Bis(2-hyrdoxybenzylidene)tetrahydro4-H-pyran4-one], the VEGF in assay [1] (5 μM, DMSO = 100) is recorded as 21%; in [1] (setting [3]) it was 216* pg/ml.

For the compound `C(=C\c1ccccc1)/S/C=C/c1ccccc1` [EF15], the VEGF in [1] (5 μM, DMSO = 100) was 28%; in assay [1] (setting [3]), 1187 pg/mL; in assay [1] (20 μM, DMSO = 100), 22%; in assay [1] (20 μM, DMSO control 4197), 938 pg/mL. Besides, the “VEGF ELISA” value in assay [1] (5 μM) amounted to 2361 pg/ml/well; in assay [1] (20 μM), 894 pg/ml/well.

As to `CC(=O)O.O=C1C(=Cc2ccccc2F)CNCC1=Cc1ccccc1F` [EF24, 3,5-Bis-(2-fluorobenzylidene)-piperidin-4-one-acetate], the GI50 in the assay on CCRF-CEM is 0.2 µM; with SNB-19, 0.7 µM; in the assay on A549, 1.9 µM; with SR it was 0.1 µM; with KM12 it was 0.2 µM; with SF-268 it was 0.6 µM. In addition, the GI50 turned out to be 1 µM in the assay on HS 578T; 0.2 µM in the assay on LOX IMVI; 0.6 µM in the assay with UO-31; 2.1 µM with SK-MEL-28; 0.8 µM with COLO 205; 0.5 µM in the assay on MOLT-4. In addition, the GI50 in the assay on NCI-H522 was determined as 0.9 µM; in the assay on NCI-H23, 0.9 µM; in the assay on HOP-62, 0.7 µM; with A498, 0.9 µM; with HCC-2998 it was 1.1 µM; with SK-OV-3 it was 1.7 µM. The GI50 was 1.3 µM with SK-MEL-5; 3.6 µM with NCI-H226; 1.1 µM in the assay with OVCAR-3; 85 µM in the assay on SF-295; 0.3 µM in the assay on HT29; 0.4 µM in the assay with HL-60 (TB). The GI50 with 786-0 was determined as 0.2 µM; in the assay with ACHN, 1.1 µM; with MDA-MB-231, 1.3 µM; in the assay with OVCAR-4 it was 0.7 µM. Besides, the CC50 in the assay on SNB-19 was 19.3 µM; in the assay with A549 it was 89.4 µM; in the assay with SR, 68.2 µM; in the assay on KM12 it was 3.4 µM; in the assay with SF-268, 55.6 µM; in the assay on HS 578T, 81.4 µM. In addition, the CC50 with UO-31 amounted to 4.5 µM; in the assay on SK-MEL-28 it was 33.1 µM; in the assay with COLO 205, 8 µM; with MOLT-4, 66.2 µM; with NCI-H522, 22.9 µM; in the assay with NCI-H23, 5.3 µM. Also, the CC50 in the assay with A498 stood at 3.4 µM; in the assay on HCC-2998, 5 µM; in the assay with SK-OV-3 it was 12.8 µM; in the assay with NCI-H226 it was 48.3 µM; in the assay with OVCAR-3, 16.2 µM; with SF-295, 20.6 µM. Further, the CC50 with HT29 is 57.3 µM; in the assay with HL-60 (TB), above 100 µM; with 786-0, 1.6 µM; in the assay with ACHN, 5.6 µM; in the assay on MDA-MB-231, 9.1 µM; with OVCAR-4, 17.2 µM.

(Values after patent US7371766B2, “Curcumin analogs with anti-tumor and anti-angiogenic properties” (Emory University, priority 1999, dated 2008).)
